Experimental data published in patent US8314127B2, “Piperidine derivatives” (Astrazeneca AB, priority 2005, dated 2012).

Experiments:
human H1 receptor = biological target: T1, human H1 receptor (Homo sapiens, UniProt P35367); assay: Histamine H1 receptor binding, competition displacement of [3H]-pyrilamine; conditions: 1 nM [3H]-pyrilamine, membranes from recombinant CHO-K1 cells, 1 hour at room temperature; read-out: H1 pKi (converted)
T1 construct: purchased Euroscreen SA, Brussels, Belgium ES-390-M; host or cells: CHO-K1

CCR3 [1] = biological target: T2, CCR3 (Homo sapiens, UniProt P51677); assay: Compound affinity at human recombinant CCR3 receptors, radioligand competition on CHO-K1 cell membranes; assay type: binding; parameters: expressed in transfected cells; host or cells: CHO-K1; conditions: 2 nM [3H]-4-(2,4-dichloro-3-methylphenoxy)-1'-[4-(methylsulfonyl)benzoyl]-1,4'-bipiperidine, 2 h at 37° C., mean of minimum 2 experiments; for Ki: read-out: CCR3 pKi (converted)
T2 sequence (P51677 1-355): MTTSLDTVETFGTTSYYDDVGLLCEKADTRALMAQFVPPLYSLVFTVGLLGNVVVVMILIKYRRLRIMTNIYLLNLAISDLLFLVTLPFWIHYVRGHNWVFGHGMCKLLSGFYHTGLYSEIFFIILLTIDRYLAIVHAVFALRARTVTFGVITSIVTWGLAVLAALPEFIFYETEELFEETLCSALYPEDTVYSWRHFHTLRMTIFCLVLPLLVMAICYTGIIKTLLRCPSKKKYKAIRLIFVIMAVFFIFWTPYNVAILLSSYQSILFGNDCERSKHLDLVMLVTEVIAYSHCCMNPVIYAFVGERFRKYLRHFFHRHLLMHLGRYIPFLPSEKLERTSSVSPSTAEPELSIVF

CCR3 [2] = biological target: T2, CCR3; assay: Eotaxin-2-induced shape change in eosinophils in human blood in vitro; assay type: cell-based; parameters: Human blood, collected by venous puncture into 9 mL lithium-heparin tubes; endogenous in cells; host or cells: eosinophils in human whole blood; conditions: eotaxin-2 E/[A] curve displacement, 4 min at 37° C., flow cytometry forward scatter, read-out: CCR3 pA2 (converted)

T1 sequence (P35367 whole entry): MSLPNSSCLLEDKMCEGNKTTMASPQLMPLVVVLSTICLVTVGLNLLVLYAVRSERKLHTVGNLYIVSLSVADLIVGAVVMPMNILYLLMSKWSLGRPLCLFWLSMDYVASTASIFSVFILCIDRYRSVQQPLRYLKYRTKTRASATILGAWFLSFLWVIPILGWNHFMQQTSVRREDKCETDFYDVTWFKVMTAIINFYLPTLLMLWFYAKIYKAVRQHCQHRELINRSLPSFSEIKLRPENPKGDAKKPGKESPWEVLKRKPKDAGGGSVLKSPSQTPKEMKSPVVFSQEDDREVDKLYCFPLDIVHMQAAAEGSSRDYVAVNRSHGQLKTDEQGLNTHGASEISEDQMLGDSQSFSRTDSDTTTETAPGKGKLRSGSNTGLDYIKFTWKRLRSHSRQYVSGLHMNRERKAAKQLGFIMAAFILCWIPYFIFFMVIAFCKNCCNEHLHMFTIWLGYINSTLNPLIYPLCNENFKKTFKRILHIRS

`CCc1c(OC2CCN(CC3CCN([C@@H](Cc4ccccc4)C(=O)O)CC3)CC2)ccc(Cl)c1Cl` [Example 13, (2S)-2-[4-[[4-(3,4-dichloro-2-ethyl-phenoxy)-1-piperidyl]methyl]-1-piperidyl]-3-phenylpropanoic acid] gave a Ki (human H1 receptor) of 100 nM, a Ki (CCR3 [1]) of 1.26 nM and a Kb (CCR3 [2]) of 200 nM.

Work on `COc1ccccc1C[C@@H](C(=O)O)N1CCC(CN2CCC(Oc3ccc(Cl)c(Cl)c3C)CC2)CC1` [Example 2, (2S)-2-[4-[[4-(3,4-dichloro-2-methyl-phenoxy)-1-piperidyl]methyl]-1-piperidyl]-3-(2-methoxyphenyl)-propanoic acid] yielded a Ki (CCR3 [1]) of 0.631 nM and a Kb (CCR3 [2]) of 20 nM.

With `Cc1c(OC2CCN(CC3CCN([C@@H](Cc4ccccc4)C(=O)O)CC3)CC2)ccc(C#N)c1Cl` [Example 15, (22S)-2-(4-{[4-(3-chloro-4-cyano-2-methylphenoxy)-piperidin-1-yl]methyl}piperidin-1-yl)-3-phenylpropanoic acid] the “CCR3 pKi” value (CCR3 [1]) was 8.2.

For `Cc1c(OC2CCN(CC3CCN([C@@H](Cc4ccc(C#N)cc4)C(=O)O)CC3)CC2)ccc(Cl)c1Cl` [Example 3, (2S)-3-(4-cyanophenyl)-2-[4-[[4-(3,4-dichloro-2-methyl-phenoxy)-1-piperidyl]methyl]-1-piperidyl]-propanoic acid], the Ki (human H1 receptor) was 31.6 nM, the Ki (CCR3 [1]) was 0.501 nM and the Kb (CCR3 [2]) was 20 nM.

With `CCc1c(OC2CCN(CC3CCN([C@@H](Cc4ccc(F)cc4)C(=O)O)CC3)CC2)ccc(Cl)c1Cl` [Example 14, (2S)-2-[4-[[4-(3,4-dichloro-2-ethyl-phenoxy)-1-piperidyl]methyl]-1-piperidyl]-3-(4-fluorophenyl)-propanoic acid] the Ki (CCR3 [1]) was 0.501 nM and the Kb (CCR3 [2]) was 200 nM.
